# Data: publication PMC6597546, “Identification of a potent benzoxaborole drug candidate for treating cryptosporidiosis” (Nature Communications, 2019)
# Where “and” joins values, the source holds several entries; their conditions need not be identical. Equal values may be shown once.
# Tested on: C. parvum (Bunch Grass Farms Iowa isolate)
# Assay: Neonatal calf model of cryptosporidiosis
# Format: in vivo
# Design: key to Oocyst Shedding, individual calves / Oocyst Shedding: C. parvum abundance per gram of fecal dry matter (qPCR); key to Fecal Consistency Score, individual calves / Fecal Consistency Score: score 1 = normal, 3 = severely abnormal
# Procedure: All calf efficacy studies were performed as previously described. These studies were approved by the University of Vermont Institutional animal Care and Use Committee, and conducted in compliance with the USDA-APHIS “Blue Book”, available at www.aphis.usda.gov/animal-welfare. Holstein bull calves were acquired at birth from Green Mountain Dairy (Sheldon, VT), given synthetic colostrum with 200 g of IgG (Land O’Lakes, Ardent Hills, MO) and bovine coronavirus and Escherichia coli antibodies (First Defense Bolus, Immuncell Corporation, Portland, ME) within 2 h of birth, and transported to UVM. Calves were group-housed initially, and infected at 24–48 h of age during an interruption in bottle feeding by oral administration of ∼5 × 10^7 C. parvum Iowa isolate oocysts (Bunch Grass Farms, Deary, ID) suspended in 10 mL of water. They were then moved to individual raised pens, and observed twice daily at feeding times for clinical signs, which were quantified according to a previously described standardized scoring rubric. Data on fecal consistency, dehydration and overall health were collected, in each case with a score of 1 being normal and 3 being severely abnormal (scoring rubric in Supplementary Table 2). Clinical microbiologic studies for adventitious infectious agents including Salmonella culture, aerobic bacterial culture with E. coli genotyping, rotavirus, and coronavirus testing were performed on all calves at the onset of diarrhea by the Cornell Animal Health Diagnostic Center (Ithaca, NY). Animals with severe diarrhea or other symptoms were supported aggressively, including with administration of oral electrolytes, intravenous fluids and flunixin meglumine (Banamine, Merck) as needed. […] Daily fecal samples were obtained from collections bins located under each pen. Fecal samples used for parasite quantification were dried at 90 °C until stable in weight, and C. parvum abundance per gram of fecal dry matter was measured using qPCR and the primers Cp18s forward and Cp18s reverse.
# [1] = 5 mg per kg twice daily oral, days 2–8
# [2] = 6.67 mg/kg every 8 h for three days, Calf 1, Day 0
# [3] = 6.67 mg/kg every 8 h for three days, Calf 1, Day 1
# [4] = 6.67 mg/kg every 8 h for three days, Calf 1, Day 2
# [5] = 6.67 mg/kg every 8 h for three days, Calf 1, Day 3
# [6] = 6.67 mg/kg every 8 h for three days, Calf 1, Day 4
# [7] = 6.67 mg/kg every 8 h for three days, Calf 1, Day 5
# [8] = 6.67 mg/kg every 8 h for three days, Calf 1, Day 6
# [9] = 6.67 mg/kg every 8 h for three days, Calf 1, Day 7
# [10] = 6.67 mg/kg every 8 h for three days, Calf 1, Day 8
# [11] = 6.67 mg/kg every 8 h for three days, Calf 1, Day 9
# [12] = 6.67 mg/kg every 8 h for three days, Calf 1, Day 10
# [13] = 6.67 mg/kg every 8 h for three days, Calf 1, Day 11
# [14] = 6.67 mg/kg every 8 h for three days, Calf 1, Day 12
# [15] = 6.67 mg/kg every 8 h for three days, Calf 1, Day 13
# [16] = 6.67 mg/kg every 8 h for three days, Calf 1, Day 14
# [17] = 6.67 mg/kg every 8 h for three days, Calf 2, Day 0
# [18] = 6.67 mg/kg every 8 h for three days, Calf 2, Day 1
# [19] = 6.67 mg/kg every 8 h for three days, Calf 2, Day 2
# [20] = 6.67 mg/kg every 8 h for three days, Calf 2, Day 3
# [21] = 6.67 mg/kg every 8 h for three days, Calf 2, Day 4
# [22] = 6.67 mg/kg every 8 h for three days, Calf 2, Day 5
# [23] = 6.67 mg/kg every 8 h for three days, Calf 2, Day 6
# [24] = 6.67 mg/kg every 8 h for three days, Calf 2, Day 7
# [25] = 6.67 mg/kg every 8 h for three days, Calf 2, Day 8
# [26] = 6.67 mg/kg every 8 h for three days, Calf 2, Day 9
# [27] = 6.67 mg/kg every 8 h for three days, Calf 2, Day 10
# [28] = 6.67 mg/kg every 8 h for three days, Calf 2, Day 11
# [29] = 6.67 mg/kg every 8 h for three days, Calf 2, Day 12
# [30] = 6.67 mg/kg every 8 h for three days, Calf 2, Day 13
# [31] = 6.67 mg/kg every 8 h for three days, Calf 2, Day 14
# [32] = 6.67 mg/kg every 8 h for three days, Calf 3, Day 0
# [33] = 6.67 mg/kg every 8 h for three days, Calf 3, Day 1
# [34] = 6.67 mg/kg every 8 h for three days, Calf 3, Day 2
# [35] = 6.67 mg/kg every 8 h for three days, Calf 3, Day 3
# [36] = 6.67 mg/kg every 8 h for three days, Calf 3, Day 4
# [37] = 6.67 mg/kg every 8 h for three days, Calf 3, Day 5
# [38] = 6.67 mg/kg every 8 h for three days, Calf 3, Day 6
# [39] = 6.67 mg/kg every 8 h for three days, Calf 3, Day 7
# [40] = 6.67 mg/kg every 8 h for three days, Calf 3, Day 8
# [41] = 6.67 mg/kg every 8 h for three days, Calf 3, Day 9
# [42] = 6.67 mg/kg every 8 h for three days, Calf 3, Day 10
# [43] = 6.67 mg/kg every 8 h for three days, Calf 3, Day 11
# [44] = 6.67 mg/kg every 8 h for three days, Calf 3, Day 12
# [45] = 6.67 mg/kg every 8 h for three days, Calf 3, Day 13
# [46] = 6.67 mg/kg every 8 h for three days, Calf 3, Day 14
# [47] = 10 mg per kg twice daily for 7 days begun day 4
# [48] = 10 mg/kg every 12 h with delayed start, Calf 1, Day 0
# [49] = 10 mg/kg every 12 h with delayed start, Calf 1, Day 1
compound,measurement,setting,value
CC1(C)OB(O)c2cc(NC(=O)c3ccc(-n4cccn4)cc3Cl)ccc21 [AN7973],effect on diarrhea,[1],completely eliminated diarrhea
same,effect on parasite shedding,[1],curtailed parasite shedding
same,"AUC for the dehydration scores, individual animals",5 mg/kg BID,0
same,"AUC for the diarrhea scores, individual animals",5 mg/kg BID,0
same,"Oocyst Shedding, individual calves","5 mg/kg every 12 h on days 2–8, Day 0",100
same,"Oocyst Shedding, individual calves","5 mg/kg every 12 h on days 2–8, Day 1",100 and 583
same,"Oocyst Shedding, individual calves","5 mg/kg every 12 h on days 2–8, Day 2",4179 and 2794
same,"Oocyst Shedding, individual calves","5 mg/kg every 12 h on days 2–8, Day 3",46248 and 34331
same,"Oocyst Shedding, individual calves","5 mg/kg every 12 h on days 2–8, Day 4",68492 and 55772
same,"Oocyst Shedding, individual calves","5 mg/kg every 12 h on days 2–8, Day 6",265539 and 3628
same,"Oocyst Shedding, individual calves","5 mg/kg every 12 h on days 2–8, Day 7",39302 and 2599
same,"Oocyst Shedding, individual calves","5 mg/kg every 12 h on days 2–8, Day 8",43202 and 100
same,"Oocyst Shedding, individual calves","5 mg/kg every 12 h on days 2–8, Day 9",146 and 100
same,"Oocyst Shedding, individual calves","5 mg/kg every 12 h on days 2–8, Day 10",611 and 192
same,effect on diarrhea,6.67 mg per kg three times per day for 3 days,eliminated diarrhea
same,reduction of the rate of parasite shedding during treatment,"6.67 mg per kg three times per day for 3 days, parasitological relapse followed",~3 log
same,"AUC for the dehydration scores, individual animals",6.67 mg/kg TID (3 days),0 and 0.3333
same,"AUC for the diarrhea scores, individual animals",6.67 mg/kg TID (3 days),0 and 1.333
same,Fecal Consistency Score,[2],1
same,Oocyst Shedding,[2],415
same,Fecal Consistency Score,[3],1
same,Oocyst Shedding,[3],1163
same,Fecal Consistency Score,[4],1
same,Oocyst Shedding,[4],989897
same,Fecal Consistency Score,[5],1
same,Oocyst Shedding,[5],285174
same,Fecal Consistency Score,[6],1
same,Oocyst Shedding,[6],27986
same,Fecal Consistency Score,[7],1
same,Oocyst Shedding,[7],2214
same,Fecal Consistency Score,[8],1
same,Oocyst Shedding,[8],10466
same,Fecal Consistency Score,[9],1
same,Oocyst Shedding,[9],16062
same,Fecal Consistency Score,[10],1
same,Oocyst Shedding,[10],525550
same,Fecal Consistency Score,[11],1
same,Oocyst Shedding,[11],522608
same,Fecal Consistency Score,[12],1
same,Oocyst Shedding,[12],905562
same,Fecal Consistency Score,[13],1
same,Oocyst Shedding,[13],8303500
same,Fecal Consistency Score,[14],1
same,Oocyst Shedding,[14],134619
same,Fecal Consistency Score,[15],1
same,Oocyst Shedding,[15],473515
same,Fecal Consistency Score,[16],1
same,Oocyst Shedding,[16],35244
same,Fecal Consistency Score,[17],2
same,Oocyst Shedding,[17],1
same,Fecal Consistency Score,[18],2
same,Oocyst Shedding,[18],16497
same,Fecal Consistency Score,[19],1
same,Oocyst Shedding,[19],909
same,Fecal Consistency Score,[20],1
same,Oocyst Shedding,[20],179330
same,Fecal Consistency Score,[21],1
same,Oocyst Shedding,[21],38982
same,Fecal Consistency Score,[22],1
same,Oocyst Shedding,[22],6563
same,Fecal Consistency Score,[23],1
same,Oocyst Shedding,[23],1
same,Fecal Consistency Score,[24],1
same,Oocyst Shedding,[24],1
same,Fecal Consistency Score,[25],1
same,Oocyst Shedding,[25],1
same,Fecal Consistency Score,[26],1
same,Oocyst Shedding,[26],1
same,Fecal Consistency Score,[27],1
same,Oocyst Shedding,[27],162
same,Fecal Consistency Score,[28],1
same,Oocyst Shedding,[28],82
same,Fecal Consistency Score,[29],1
same,Oocyst Shedding,[29],1213
same,Fecal Consistency Score,[30],1
same,Oocyst Shedding,[30],387
same,Fecal Consistency Score,[31],1
same,Oocyst Shedding,[31],188
same,Fecal Consistency Score,[32],1
same,Oocyst Shedding,[32],1089
same,Fecal Consistency Score,[33],1
same,Oocyst Shedding,[33],3597
same,Fecal Consistency Score,[34],1.33
same,Oocyst Shedding,[34],9022387
same,Fecal Consistency Score,[35],1.67
same,Oocyst Shedding,[35],2560722
same,Fecal Consistency Score,[36],1.5
same,Oocyst Shedding,[36],582683
same,Fecal Consistency Score,[37],1
same,Oocyst Shedding,[37],6828
same,Fecal Consistency Score,[38],1
same,Oocyst Shedding,[38],54223
same,Fecal Consistency Score,[39],1
same,Oocyst Shedding,[39],8461
same,Fecal Consistency Score,[40],1
same,Oocyst Shedding,[40],2785
same,Fecal Consistency Score,[41],1
same,Oocyst Shedding,[41],50511
same,Fecal Consistency Score,[42],1
same,Oocyst Shedding,[42],198125
same,Fecal Consistency Score,[43],1.33
same,Oocyst Shedding,[43],100223
same,Fecal Consistency Score,[44],1
same,Oocyst Shedding,[44],154951
same,Fecal Consistency Score,[45],1
same,Oocyst Shedding,[45],141133
same,Fecal Consistency Score,[46],1.5
same,Oocyst Shedding,[46],78359
same,effect on parasite shedding and diarrhea,"10 mg per kg once daily oral, days 2–8, shedding resumed and persisted",reduced peak parasite shedding and diarrhea
same,parasite shedding,[47],abolished by day 14
same,reduction of total parasite shedding,[47],greater than 1 log
same,diarrhea cured faster than in controls,10 mg per kg twice daily for 7 days begun day 4 (peak of symptoms),3 days
same,"AUC for the dehydration scores, individual animals",10 mg/kg BID (delayed start),0.3333 and 0 and 0.8333
same,"AUC for the diarrhea scores, individual animals",10 mg/kg BID (delayed start),1.167 and 2.333 and 2.833
same,"AUC for the dehydration scores, individual animals",10 mg/kg QD,0.3333 and 0.5
same,"AUC for the diarrhea scores, individual animals",10 mg/kg QD,2.5 and 1.833 and 2.167
same,Fecal Consistency Score,[48],1.67
same,Oocyst Shedding,[48],1
same,Fecal Consistency Score,[49],2
same,Oocyst Shedding,[49],735
